# Results taken from PMC6442233, “SAR and molecular mechanism studies of monoamine oxidase inhibition by selected chalcone analogs” (Journal of Enzyme Inhibition and Medicinal Chemistry, 2019).
# Molecular target: T1, human MAO-A (Homo sapiens, UniProt P21397)
# T1 construct: purchased Sigma-Aldrich
# T1 sequence (P21397 1-527): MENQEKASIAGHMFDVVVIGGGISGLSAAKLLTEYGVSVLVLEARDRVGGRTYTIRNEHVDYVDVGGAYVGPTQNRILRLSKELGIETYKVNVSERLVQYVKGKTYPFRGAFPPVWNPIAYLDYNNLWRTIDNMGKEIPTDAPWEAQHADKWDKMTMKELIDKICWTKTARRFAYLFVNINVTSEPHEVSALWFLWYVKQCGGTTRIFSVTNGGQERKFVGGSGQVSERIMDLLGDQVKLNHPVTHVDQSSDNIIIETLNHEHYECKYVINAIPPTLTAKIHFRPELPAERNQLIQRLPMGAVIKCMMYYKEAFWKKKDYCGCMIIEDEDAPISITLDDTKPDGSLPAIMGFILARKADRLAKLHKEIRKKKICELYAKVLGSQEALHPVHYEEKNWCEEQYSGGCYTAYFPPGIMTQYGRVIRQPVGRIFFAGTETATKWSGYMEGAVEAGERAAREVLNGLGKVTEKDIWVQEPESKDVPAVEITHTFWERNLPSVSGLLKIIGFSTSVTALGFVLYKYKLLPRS
# Test: IC50 determination for MAO-A inhibition (kynuramine, fluorescence)
# Format: biochemical
# Conditions: recombinant hMAO-A, kynuramine 50 μM, mean ± SD (triplicate)
# Description: (§1) IC50 values for the inhibition of MAO were determined by using the recombinant human MAO-A and MAO-B enzymes (Sigma-Aldrich). Enzyme reactions were performed at a final volume of 200 µL in white 96-well microplates (Eppendorf), with the reaction solvent consisting of potassium phosphate buffer (100 mM, pH 7.4, adjusted to isotonicity with KCl). The reactions contained the nonselective MAO substrate, kynuramine (50 μM), and the test inhibitors at 0.003–100 µM. The test compounds were initially dissolved in DMSO (100%), and after addition to the reactions yielded a concentration of 4% DMSO. Control reactions were included, which contained substrate and 4% DMSO but no test inhibitor. The MAO reactions were started by adding MAO-A (0.0075 mg protein/mL) or MAO-B (0.015 mg protein/mL), and were subsequently incubated for a period of 20 min (37 °C) in a convection oven. A volume of 80 µL 2 N sodium hydroxide was added to the reactions, and the fluorescence intensity of 4-hydroxyquinoline (the end-product of the MAO-catalyzed metabolism of kynuramine) in the reactions was measured at λex 310 and λem 400 nm. To quantify 4-hydroxyquinoline, a calibration curve (linear) ranging from 0.047 to 1.56 μM, was employed. […] These measurements were carried out in triplicate and the IC50 values are presented as the mean ± standard deviation (SD)[18].
# (§2) The formation of the dihydropyridinium species (MMDP^+) as a MAO-catalyzed oxidation product of MMTP was monitored at 420 nm. […] Based on this, the IC50 values were determined using kynuramine as a nonselective substrate. The rate of oxidation of kynuramine by MAO was monitored by measuring the fluorescence of the oxidation product, 4-hydroxyquinoline (λex= 310 nm; λem= 400 nm).
row,Compound,IC50 [µM]
1,"O=C(/C=C/c1cccc2c1OCO2)c1cccc(Cl)c1 [Compound 8, (E)-3-(benzo[d][1,3]dioxol-4-yl)-1–(3-chlorophenyl)prop-2-en-1-one]",> 100
2,"O=C(/C=C/c1cccc2c1OCO2)c1ccc(Cl)cc1 [Compound 6, (E)-3-(benzo[d][1,3]dioxol-4-yl)-1–(4-chlorophenyl)prop-2-en-1-one]",18.1 ± 3.49
3,"CN(C)c1ccc(/C=C/C(=O)c2cccc(C(F)(F)F)c2)cc1 [Compound 1, (E)-3–(4-(dimethylamino)phenyl)-1–(3-(trifluoromethyl)phenyl)prop-2-en-1-one]",14.3 ± 1.81
4,"CN(C)c1ccc(/C=C/C(=O)c2ccc(Br)cc2)cc1 [Compound 3, (E)-1–(4-bromophenyl)-3–(4-(dimethylamino)phenyl)prop-2-en-1-one]",> 100
5,"CS(=O)(=O)c1ccc(C(=O)/C=C/c2ccc(Br)cc2)cc1 [Compound 9, (E)-3–(4-bromophenyl)-1–(4-(methylsulfonyl)phenyl)prop-2-en-1-one]",> 100

# Continued, values first:
row,IC50 [µM],Compound
1,96.6 ± 5.21,"CSc1ccc(C(=O)/C=C/c2cccc(Br)c2)cc1 [Compound 11, (E)-3–(3-bromophenyl)-1–(4-(methylthio)phenyl)prop-2-en-1-one]"
2,0.444 ± 0.039,"COc1cc(OC)c(/C=C/C(=O)c2ccc(F)cc2)c(OC)c1 [Compound 19, (E)-1–(4-fluorophenyl)-3–(2,4,6-trimethoxyphenyl)prop-2-en-1-one]"
3,6.59 ± 0.422,"COc1cccc(/C=C/C(=O)c2ccc(Br)cc2)c1OC [Compound 21, (E)-1–(4-bromophenyl)-3–(2,3-dimethoxyphenyl)prop-2-en-1-one]"
4,0.56 ± 0.076,"COc1cc(OC)c(/C=C/C(=O)c2ccc(Br)cc2)c(OC)c1 [Compound 18, (E)-1–(4-bromophenyl)-3–(2,4,6-trimethoxyphenyl)prop-2-en-1-one]"
5,0.173 ± 0.003,"O=C(/C=C/c1ccc(Br)cc1)c1ccc2c(c1)OCO2 [Compound 15, (E)-1-(benzo[d][1,3]dioxol-5-yl)-3–(4-bromophenyl)prop-2-en-1-one]"

# Molecular target: T2, human MAO-B (Homo sapiens, UniProt P27338)
# T2 construct: purchased Sigma-Aldrich
# T2 sequence (P27338 1-520): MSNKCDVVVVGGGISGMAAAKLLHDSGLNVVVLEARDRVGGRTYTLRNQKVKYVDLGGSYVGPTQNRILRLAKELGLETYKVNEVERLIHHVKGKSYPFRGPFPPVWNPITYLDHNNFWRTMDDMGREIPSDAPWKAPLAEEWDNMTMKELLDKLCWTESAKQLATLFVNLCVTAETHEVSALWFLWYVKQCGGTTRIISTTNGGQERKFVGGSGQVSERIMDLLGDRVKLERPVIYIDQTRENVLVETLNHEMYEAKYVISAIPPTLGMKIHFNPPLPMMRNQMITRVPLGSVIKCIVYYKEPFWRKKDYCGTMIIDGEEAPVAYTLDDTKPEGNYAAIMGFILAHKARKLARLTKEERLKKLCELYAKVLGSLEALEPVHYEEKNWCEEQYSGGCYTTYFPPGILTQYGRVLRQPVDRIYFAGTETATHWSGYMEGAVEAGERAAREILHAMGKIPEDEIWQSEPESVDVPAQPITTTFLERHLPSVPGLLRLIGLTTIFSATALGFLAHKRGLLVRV
# Test: IC50 determination for MAO-B inhibition (kynuramine, fluorescence)
# Format: biochemical
# Conditions: SI = IC50(MAO-A)/IC50(MAO-B)
# Description: as §1, §2
row,Compound,Selectivity index
1,"O=C(/C=C/c1cccc2c1OCO2)c1cccc(Cl)c1 [Compound 8, (E)-3-(benzo[d][1,3]dioxol-4-yl)-1–(3-chlorophenyl)prop-2-en-1-one]",>1720
2,"O=C(/C=C/c1cccc2c1OCO2)c1ccc(Cl)cc1 [Compound 6, (E)-3-(benzo[d][1,3]dioxol-4-yl)-1–(4-chlorophenyl)prop-2-en-1-one]",130
3,"CN(C)c1ccc(/C=C/C(=O)c2cccc(C(F)(F)F)c2)cc1 [Compound 1, (E)-3–(4-(dimethylamino)phenyl)-1–(3-(trifluoromethyl)phenyl)prop-2-en-1-one]",116
4,"CN(C)c1ccc(/C=C/C(=O)c2ccc(Br)cc2)cc1 [Compound 3, (E)-1–(4-bromophenyl)-3–(4-(dimethylamino)phenyl)prop-2-en-1-one]",>185
5,"CS(=O)(=O)c1ccc(C(=O)/C=C/c2ccc(Br)cc2)cc1 [Compound 9, (E)-3–(4-bromophenyl)-1–(4-(methylsulfonyl)phenyl)prop-2-en-1-one]",>240

# More lines, now with the values ahead:
row,Selectivity index,Compound
1,487,"CSc1ccc(C(=O)/C=C/c2cccc(Br)c2)cc1 [Compound 11, (E)-3–(3-bromophenyl)-1–(4-(methylthio)phenyl)prop-2-en-1-one]"
2,<0.004,"COc1cc(OC)c(/C=C/C(=O)c2ccc(F)cc2)c(OC)c1 [Compound 19, (E)-1–(4-fluorophenyl)-3–(2,4,6-trimethoxyphenyl)prop-2-en-1-one]"
3,37,"COc1cccc(/C=C/C(=O)c2ccc(Br)cc2)c1OC [Compound 21, (E)-1–(4-bromophenyl)-3–(2,3-dimethoxyphenyl)prop-2-en-1-one]"
4,<0.005,"COc1cc(OC)c(/C=C/C(=O)c2ccc(Br)cc2)c(OC)c1 [Compound 18, (E)-1–(4-bromophenyl)-3–(2,4,6-trimethoxyphenyl)prop-2-en-1-one]"
5,1.7,"O=C(/C=C/c1ccc(Br)cc1)c1ccc2c(c1)OCO2 [Compound 15, (E)-1-(benzo[d][1,3]dioxol-5-yl)-3–(4-bromophenyl)prop-2-en-1-one]"

# Same assay, conditions: recombinant hMAO-B, kynuramine 50 μM, mean ± SD (triplicate)
row,Compound,IC50 [µM]
1,"O=C(/C=C/c1cccc2c1OCO2)c1cccc(Cl)c1 [Compound 8, (E)-3-(benzo[d][1,3]dioxol-4-yl)-1–(3-chlorophenyl)prop-2-en-1-one]",0.058 ± 0.009
2,"O=C(/C=C/c1cccc2c1OCO2)c1ccc(Cl)cc1 [Compound 6, (E)-3-(benzo[d][1,3]dioxol-4-yl)-1–(4-chlorophenyl)prop-2-en-1-one]",0.139 ± 0.019
3,"CN(C)c1ccc(/C=C/C(=O)c2cccc(C(F)(F)F)c2)cc1 [Compound 1, (E)-3–(4-(dimethylamino)phenyl)-1–(3-(trifluoromethyl)phenyl)prop-2-en-1-one]",0.123 ± 0.003
4,"CN(C)c1ccc(/C=C/C(=O)c2ccc(Br)cc2)cc1 [Compound 3, (E)-1–(4-bromophenyl)-3–(4-(dimethylamino)phenyl)prop-2-en-1-one]",0.539 ± 0.058
5,"CS(=O)(=O)c1ccc(C(=O)/C=C/c2ccc(Br)cc2)cc1 [Compound 9, (E)-3–(4-bromophenyl)-1–(4-(methylsulfonyl)phenyl)prop-2-en-1-one]",0.404 ± 0.064

# Further lines, results first:
row,IC50 [µM],Compound
1,0.198 ± 0.012,"CSc1ccc(C(=O)/C=C/c2cccc(Br)c2)cc1 [Compound 11, (E)-3–(3-bromophenyl)-1–(4-(methylthio)phenyl)prop-2-en-1-one]"
2,> 100,"COc1cc(OC)c(/C=C/C(=O)c2ccc(F)cc2)c(OC)c1 [Compound 19, (E)-1–(4-fluorophenyl)-3–(2,4,6-trimethoxyphenyl)prop-2-en-1-one]"
3,0.174 ± 0.015,"COc1cccc(/C=C/C(=O)c2ccc(Br)cc2)c1OC [Compound 21, (E)-1–(4-bromophenyl)-3–(2,3-dimethoxyphenyl)prop-2-en-1-one]"
4,> 100,"COc1cc(OC)c(/C=C/C(=O)c2ccc(Br)cc2)c(OC)c1 [Compound 18, (E)-1–(4-bromophenyl)-3–(2,4,6-trimethoxyphenyl)prop-2-en-1-one]"
5,0.102 ± 0.009,"O=C(/C=C/c1ccc(Br)cc1)c1ccc2c(c1)OCO2 [Compound 15, (E)-1-(benzo[d][1,3]dioxol-5-yl)-3–(4-bromophenyl)prop-2-en-1-one]"

# Test system: not given
# Test: not given
# Conditions: not given
row,Compound,melting point [°C]
1,"O=C(/C=C/c1cccc2c1OCO2)c1cccc(Cl)c1 [Compound 8, (E)-3-(benzo[d][1,3]dioxol-4-yl)-1–(3-chlorophenyl)prop-2-en-1-one]",79 to 83
2,"O=C(/C=C/c1cccc2c1OCO2)c1ccc(Cl)cc1 [Compound 6, (E)-3-(benzo[d][1,3]dioxol-4-yl)-1–(4-chlorophenyl)prop-2-en-1-one]",83 to 87
3,"CS(=O)(=O)c1ccc(C(=O)/C=C/c2ccc(Br)cc2)cc1 [Compound 9, (E)-3–(4-bromophenyl)-1–(4-(methylsulfonyl)phenyl)prop-2-en-1-one]",206 to 210

# Second part, the compound after the results:
row,melting point [°C],Compound
1,139 to 143,"CSc1ccc(C(=O)/C=C/c2cccc(Br)c2)cc1 [Compound 11, (E)-3–(3-bromophenyl)-1–(4-(methylthio)phenyl)prop-2-en-1-one]"
2,120 to 124,"COc1cccc(/C=C/C(=O)c2ccc(Br)cc2)c1OC [Compound 21, (E)-1–(4-bromophenyl)-3–(2,3-dimethoxyphenyl)prop-2-en-1-one]"
3,150 to 153,"O=C(/C=C/c1ccc(Br)cc1)c1ccc2c(c1)OCO2 [Compound 15, (E)-1-(benzo[d][1,3]dioxol-5-yl)-3–(4-bromophenyl)prop-2-en-1-one]"
